# Patent US10730850B2, “Pyridinylmethyl carbamimidoylcarbamate derivatives and their use as AOC3 inhibitors” (Boehringer Ingelheim International GmbH, priority 2016, dated 2020)
# Like-named read-outs stand apart in the source and are kept apart here.
# Key:
# [1] = In vivo clearance experiment (biliary clearance); conditions: rat, bile collected 0-180 min
# Description: Bile flow is continuously collected from animal for 4 hours, including the 1 hour post-surgery recovery period. For short biliary excretion study, blood samples are taken at 0, 5 and 180 min and bile samples collection intervals are: 10 min before dosing and 0-180 min. All blood and bile samples are collected from 2 rats and are not pooled. Bile is kept at 4° C. during the collecting intervals and immediately frozen in dry ice after the collecting period is over.
# As biliary clearance is expected to be impaired in patients with liver diseases (Clarke J. D. et. al J. Pharm. Exp. Ther. 348:452-458; Ferslew B. C. et al. Clin. Pharm. & Ther. Vol 97(4) XX), a reduced biliary clearance results in a better predictibitlity of the pharmacokinetics and assessment of safety margins in this patient population.
# AOC3 = AOC3 (Homo sapiens (Human), UniProt Q16853); assay: MAO-Glo AOC3 assay (recombinant CHO cells overexpressing AOC3); type: biochemical
# Sequence of AOC3 (Q16853 whole entry): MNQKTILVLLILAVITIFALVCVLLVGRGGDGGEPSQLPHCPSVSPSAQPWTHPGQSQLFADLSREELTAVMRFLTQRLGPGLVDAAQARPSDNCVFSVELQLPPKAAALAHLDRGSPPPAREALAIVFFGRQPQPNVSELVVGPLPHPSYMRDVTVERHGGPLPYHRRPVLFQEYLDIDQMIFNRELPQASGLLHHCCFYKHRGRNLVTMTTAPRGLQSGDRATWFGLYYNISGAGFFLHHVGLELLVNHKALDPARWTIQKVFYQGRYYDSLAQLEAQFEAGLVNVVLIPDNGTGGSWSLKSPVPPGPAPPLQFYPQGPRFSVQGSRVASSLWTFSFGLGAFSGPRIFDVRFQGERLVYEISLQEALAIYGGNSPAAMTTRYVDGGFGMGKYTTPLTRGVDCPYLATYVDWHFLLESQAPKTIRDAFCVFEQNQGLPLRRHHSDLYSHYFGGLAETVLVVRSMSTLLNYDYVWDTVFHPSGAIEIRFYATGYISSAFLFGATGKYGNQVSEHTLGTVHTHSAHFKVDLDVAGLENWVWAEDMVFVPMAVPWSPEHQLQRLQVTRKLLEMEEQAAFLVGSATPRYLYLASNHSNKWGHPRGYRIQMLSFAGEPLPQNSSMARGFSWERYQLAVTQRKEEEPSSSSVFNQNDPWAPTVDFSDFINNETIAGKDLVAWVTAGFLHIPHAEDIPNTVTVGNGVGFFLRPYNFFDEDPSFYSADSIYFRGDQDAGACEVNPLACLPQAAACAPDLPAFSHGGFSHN
# From the text: The MAO-Glo™ Assay (commercial available from PROMEGA, # V1402) provides a sensitive method for the measurement of monoamine oxidase (MAO) activity (Valley, M. P. et al., 2006, Anal. Biochem. 359: 238-246) from a variety of tissues, biofluids or recombinant expressed or purified enzymes. As substrate a derivate of the beetle luciferin ((4S)-4,5-dihydro-2-(6-hydroxybenzothiazolyl)-4-thiazole-carboxylic acid) is used, which is oxidized at a primary amine moiety. After a spontaneous elimination and a catalyzed esterase reaction, the turnover of the luciferine by the luciferase is recorded as a signal of AOC3 activity.
# An aliquot of 3 μL of the compound dilution is added to a 384 well plate (Optiplate, PS, flat bottom, white, PERKIN ELMER, #6007290) with a final DMSO concentration of 6.6%. Recombinant CHO cells, overexpressing the human (1500 cells/well), mouse (1000 cells/well) or rat (500 cells/well) AOC3 enzyme are diluted in reaction buffer and added in a volume of 15 μL to the wells. After incubation for 20 minutes at 37° C., 2 μL of MAO substrate (dissolved in DMSO at 16 mM, adjusted to assay concentration in reaction buffer to a final assay concentration of 20 μM) is added and further incubated for 60 minutes at 37° C. The turnover of the substrate is determined by the addition of 20 μL of the detection-mix which was generated by the addition of reconstitution buffer with esterase (PROMEGA, # V1402) to the luciferine detection reagent (PROMEGA, # V1402). After an incubation period of 20 minutes, the luminescent signal is measured with Envision 2104 Multilabel Reader (PERKIN ELMER).
# In the following table the activity expressed as IC50 (nM) of compounds according to the invention is presented wherein the IC50 values are determined in the MAO-Glo™ AOC3 assay as described hereinbefore. The term “Example” refers to the example numbers according to the following experimental section.
# hepatocytes = assay: Metabolic stability assay in hepatocyte suspension; type: in vitro ADME; conditions: 1 μM test compound
# Description: The metabolic degradation of the test compound is assayed in a hepatocyte suspension. Hepatocytes (typically cryopreserved) are incubated in an appropriate buffer system (e.g. Dulbecco's modified eagle medium plus 3.5 μg glucagon/500 mL, 2.5 mg insulin/500 mL and 3.75 mg/500 mL hydrocortison) containing 5% species serum. Following a (typically) 30 min preincubation in an incubator (37° C., 10% CO2) 5 μl of test compound solution (80 μM; from 2 mM in DMSO stock solution diluted 1:25 with medium) are added into 395 μl hepatocyte suspension (cell density in the range 0.25-5 Mio cells/mL, typically 1 Mio cells/mL; final concentration of test compound 1 μM, final DMSO concentration 0.05%). The cells are incubated for six hours (incubator, orbital shaker) and samples (25 μl) are taken at 0, 0.5, 1, 2, 4 and 6 hours. Samples are transferred into acetonitrile and pelleted by centrifugation (5 min). The supernatant is transferred to a new 96-deepwell plate, evaporated under nitrogen and resuspended. Decline of parent compound is analyzed by HPLC-MS/MS
# CLint is calculated as follows CL_INTRINSIC=Dose/AUC=(C0/CD)/(AUD+clast/k)×1000/60. C0: initial concentration in the incubation [μM], CD: cell density of vital cells [10e6 cells/mL], AUD: area under the data [μM×h], clast: concentration of last data point [μM], k: slope of the regression line for parent decline [h-1].
# The calculated in vitro hepatic intrinsic clearance can be scaled up to the intrinsic in vivo hepatic Clearance and used to predict hepatic in vivo blood clearance (CL) by the use of a liver model (well stirred model). CL_INTRINSIC_INVIVO [ml/min/kg]=(CL_INTRINSIC [μL/min/10e6 cells]×hepatocellularity [10e6 cells/g liver]×liver factor [g/kg bodyweight])/1000 CL [ml/min/kg]=CL_INTRINSIC_INVIVO [ml/min/kg]×hepatic blood flow [ml/min/kg]/(CL_INTRINSIC_INVIVO [ml/min/kg]+hepatic blood flow [ml/min/kg])
# [2] = comparative compounds of EP 2 695 881
# [3] = Table 2, compounds of the present invention, read-out: IC50
# [4] = Table 3, compounds of the present invention
# [5] = compounds of the present invention
Structure (SMILES),"Cl (biliary clearance) [1, 2]","IC50 (AOC3; Table 1, read-out: AOC3 IC50)",IC50 (AOC3; [3]),QH (hepatocytes; [4]),QH (hepatocytes; Table 4),"Cl (biliary clearance) [1, 5]"
"CC(=O)N1CCC(C2CN(c3cccc(COC(=O)NC(=N)N)c3F)C2)CC1 [559 (293), reference compound]",10.3%,,,,,
COc1ncc(N2CCN(c3nccc(COC(=O)NC(=N)N)c3F)CC2)cn1 [Example 1.072],,4 nM,4.1 nM,3.7%,4%,1.2%
"CC(=O)N1CCC(COc2ncc(-c3cccc(COC(=O)NC(=N)N)c3F)cn2)CC1 [11 (221), reference compound]",22.4%,,,,,
N=C(N)NC(=O)OCc1ccnc(N2CCN(c3ccc(C(N)=O)cc3)CC2)c1F [Example 1.084],,3 nM,2.8 nM,23%,10%,2.2%
